Source: ChEMBL document CHEMBL2413017, “Identification of novel HDAC inhibitors through cell based screening and their evaluation as potential anticancer agents” (Bioorg Med Chem Lett, 2013)
Each block holds one compound with its values, some of them ahead of it. Active and inactive are the calls of the source. The calls are words filed in the database; no cut-off is given here.

Columns and labels:
SK-OV-3 = assay: Cytotoxicity against human SKOV3 cells; format: functional, cell-based
Histone deacetylase 2 = Histone deacetylase 2 (Homo sapiens, UniProt Q92769); assay: Inhibition of HDAC2 (unknown origin)
[1] = Cytotoxicity against human H23 cells; format: functional, cell-based; conditions: NCI-H23
[2] = Cytotoxicity against human VCaP cells; format: functional, cell-based
[3] = Cytotoxicity against human MiaPaCa cells; format: functional, cell-based; conditions: MIA PaCa-2
Histone deacetylase 9 = Histone deacetylase 9 (Homo sapiens, UniProt Q9UKV0); assay: Inhibition of HDAC9 (unknown origin)
NCI-H295R = assay: Cytotoxicity against human NCI-H295R cells; format: functional, cell-based
[4] = Cytotoxicity against human SNU880 cells; format: functional, cell-based
Histone deacetylase 4 = Histone deacetylase 4 (Homo sapiens, UniProt P56524); assay: Inhibition of HDAC4 (unknown origin)
[5] = molecular target: T1, Polyamine deacetylase HDAC10 (Homo sapiens, UniProt Q969S8); assay: Inhibition of HDAC10 (unknown origin)
T1 sequence (Q969S8 whole entry): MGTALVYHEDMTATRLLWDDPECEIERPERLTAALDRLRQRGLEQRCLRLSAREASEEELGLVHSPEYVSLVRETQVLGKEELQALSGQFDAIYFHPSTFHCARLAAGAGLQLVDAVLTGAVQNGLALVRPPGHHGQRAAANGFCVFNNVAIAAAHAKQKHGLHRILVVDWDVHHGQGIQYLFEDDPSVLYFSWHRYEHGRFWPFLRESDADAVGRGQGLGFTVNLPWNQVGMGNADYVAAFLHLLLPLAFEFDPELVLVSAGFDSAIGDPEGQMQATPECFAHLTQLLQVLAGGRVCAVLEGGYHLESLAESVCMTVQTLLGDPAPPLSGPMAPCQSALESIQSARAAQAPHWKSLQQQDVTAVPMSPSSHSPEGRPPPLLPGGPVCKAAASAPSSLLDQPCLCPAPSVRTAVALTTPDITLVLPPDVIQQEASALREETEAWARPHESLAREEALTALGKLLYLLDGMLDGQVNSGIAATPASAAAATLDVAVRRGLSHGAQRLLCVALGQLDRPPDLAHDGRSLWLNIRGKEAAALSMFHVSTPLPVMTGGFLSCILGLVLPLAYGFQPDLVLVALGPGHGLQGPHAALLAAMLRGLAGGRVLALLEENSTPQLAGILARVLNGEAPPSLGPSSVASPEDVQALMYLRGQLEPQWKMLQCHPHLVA

[6] = Cytotoxicity against human Hep3B cells; format: functional, cell-based, Hep 3B2
NCI-H69 [7] = assay: Cytotoxicity against human H69 cells; format: functional, cell-based
A2780 = assay: Cytotoxicity against human A2780 cells; format: functional, cell-based
Mus musculus = assay: Toxicity in human MiaPaCa2 cells xenografted Ncr mouse at 50 to 100 mg/kg, po administered daily for 22 days; format: organism-based; design: dose 50-100 mg/kg, route oral; conditions: in vivo, 528 h
[8] = Cytotoxicity against human MIHA cells; format: functional, cell-based
MDA-MB-231 = assay: Cytotoxicity against human MDA-MB-231 cells; format: functional, cell-based
Histone deacetylase 1 = Histone deacetylase 1 (Homo sapiens, UniProt Q13547); assay: Inhibition of HDAC1 (unknown origin)
NCI-H69 [9] = assay: Cytotoxicity against […] expressing human H69 cells; format: functional, cell-based
[10] = Cytotoxicity against human MV522 cells; format: functional, cell-based
Histone deacetylase 11 = molecular target: T2, Histone deacetylase 11 (Homo sapiens, UniProt Q96DB2); assay: Inhibition of HDAC11 (unknown origin)
T2 sequence (Q96DB2 whole entry): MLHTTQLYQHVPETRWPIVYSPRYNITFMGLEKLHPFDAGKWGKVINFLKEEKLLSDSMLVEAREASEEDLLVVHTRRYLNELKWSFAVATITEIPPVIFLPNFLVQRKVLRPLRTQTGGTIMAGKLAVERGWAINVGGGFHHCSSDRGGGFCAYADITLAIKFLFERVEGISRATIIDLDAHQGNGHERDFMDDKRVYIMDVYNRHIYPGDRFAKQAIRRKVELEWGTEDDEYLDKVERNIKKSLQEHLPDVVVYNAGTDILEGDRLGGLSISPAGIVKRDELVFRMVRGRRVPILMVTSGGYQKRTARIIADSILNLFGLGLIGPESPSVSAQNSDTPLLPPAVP

Histone deacetylase 8 = molecular target: T3, Histone deacetylase 8 (Homo sapiens, UniProt Q9BY41); assay: Inhibition of HDAC8 (unknown origin)
T3 sequence (Q9BY41 whole entry): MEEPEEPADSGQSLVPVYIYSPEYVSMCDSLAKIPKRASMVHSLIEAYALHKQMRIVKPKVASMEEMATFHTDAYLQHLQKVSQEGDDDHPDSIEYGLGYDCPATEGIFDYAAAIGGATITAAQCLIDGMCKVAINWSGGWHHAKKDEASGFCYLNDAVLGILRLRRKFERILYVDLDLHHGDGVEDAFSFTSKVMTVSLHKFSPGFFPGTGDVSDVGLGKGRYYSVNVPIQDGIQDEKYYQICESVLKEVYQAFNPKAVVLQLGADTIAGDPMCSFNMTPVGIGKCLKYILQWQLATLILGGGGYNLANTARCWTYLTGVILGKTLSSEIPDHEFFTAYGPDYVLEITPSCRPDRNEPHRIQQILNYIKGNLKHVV

Histone deacetylase 3 = Histone deacetylase 3 (Homo sapiens, UniProt O15379); assay: Inhibition of HDAC3 (unknown origin)
[11] = Cytotoxicity against human A2780C/P cells; format: functional, cell-based
[12] = molecular target: T4, Protein deacetylase HDAC6 (Homo sapiens, UniProt Q9UBN7); assay: Inhibition of HDAC6 (unknown origin)
T4 sequence (Q9UBN7 whole entry): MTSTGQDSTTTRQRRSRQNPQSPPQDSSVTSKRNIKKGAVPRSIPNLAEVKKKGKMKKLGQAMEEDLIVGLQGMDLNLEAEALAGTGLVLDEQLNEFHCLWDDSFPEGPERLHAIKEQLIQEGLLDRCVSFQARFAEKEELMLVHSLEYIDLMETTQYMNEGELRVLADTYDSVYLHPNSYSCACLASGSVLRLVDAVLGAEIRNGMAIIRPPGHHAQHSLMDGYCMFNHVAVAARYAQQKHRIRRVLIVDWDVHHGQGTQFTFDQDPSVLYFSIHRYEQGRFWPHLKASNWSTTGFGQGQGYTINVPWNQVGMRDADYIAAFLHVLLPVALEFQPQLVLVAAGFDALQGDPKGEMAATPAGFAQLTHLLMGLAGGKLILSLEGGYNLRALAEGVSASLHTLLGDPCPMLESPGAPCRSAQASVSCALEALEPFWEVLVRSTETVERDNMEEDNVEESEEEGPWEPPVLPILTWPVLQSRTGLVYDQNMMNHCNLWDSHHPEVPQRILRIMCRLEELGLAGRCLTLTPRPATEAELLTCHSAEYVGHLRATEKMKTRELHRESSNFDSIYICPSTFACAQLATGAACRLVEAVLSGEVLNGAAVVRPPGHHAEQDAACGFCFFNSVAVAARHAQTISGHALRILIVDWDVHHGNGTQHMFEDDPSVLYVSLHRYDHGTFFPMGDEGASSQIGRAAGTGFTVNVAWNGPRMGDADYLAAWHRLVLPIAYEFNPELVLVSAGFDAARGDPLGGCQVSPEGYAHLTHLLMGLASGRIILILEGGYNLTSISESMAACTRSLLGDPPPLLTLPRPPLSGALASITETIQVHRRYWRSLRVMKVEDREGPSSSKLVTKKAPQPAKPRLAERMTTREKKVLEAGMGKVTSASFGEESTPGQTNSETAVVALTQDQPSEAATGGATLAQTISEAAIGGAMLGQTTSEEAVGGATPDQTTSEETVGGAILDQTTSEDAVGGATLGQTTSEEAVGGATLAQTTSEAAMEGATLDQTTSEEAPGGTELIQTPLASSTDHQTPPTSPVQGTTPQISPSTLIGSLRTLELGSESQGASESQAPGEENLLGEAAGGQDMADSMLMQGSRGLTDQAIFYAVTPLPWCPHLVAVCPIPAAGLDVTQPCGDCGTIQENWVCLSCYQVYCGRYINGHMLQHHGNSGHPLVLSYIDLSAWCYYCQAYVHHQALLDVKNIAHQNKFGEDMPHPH

MIA PaCa-2 [13] = assay: Antitumor activity against human MIAPaCa2 cells xenografted in Ncr mouse assessed as tumor growth inhibition at 100 mg/kg, po administered daily for 22 days measured on day 22 relative to vehicle-treated control; format: functional; conditions: MIA PaCa-2, 528 h, read-out: TGI
Histone deacetylase 5 = Histone deacetylase 5 (Homo sapiens, UniProt Q9UQL6); assay: Inhibition of HDAC5 (unknown origin)
MIA PaCa-2 [14] = assay: Antitumor activity against human MIAPaCa2 cells xenografted in Ncr mouse assessed as tumor growth inhibition at 80 mg/kg, ip administered daily for 22 days measured on day 25 relative to vehicle-treated control; format: functional, organism-based; design: dose 80 mg/kg

Chain of Histone deacetylase 2 (Q92769 whole entry): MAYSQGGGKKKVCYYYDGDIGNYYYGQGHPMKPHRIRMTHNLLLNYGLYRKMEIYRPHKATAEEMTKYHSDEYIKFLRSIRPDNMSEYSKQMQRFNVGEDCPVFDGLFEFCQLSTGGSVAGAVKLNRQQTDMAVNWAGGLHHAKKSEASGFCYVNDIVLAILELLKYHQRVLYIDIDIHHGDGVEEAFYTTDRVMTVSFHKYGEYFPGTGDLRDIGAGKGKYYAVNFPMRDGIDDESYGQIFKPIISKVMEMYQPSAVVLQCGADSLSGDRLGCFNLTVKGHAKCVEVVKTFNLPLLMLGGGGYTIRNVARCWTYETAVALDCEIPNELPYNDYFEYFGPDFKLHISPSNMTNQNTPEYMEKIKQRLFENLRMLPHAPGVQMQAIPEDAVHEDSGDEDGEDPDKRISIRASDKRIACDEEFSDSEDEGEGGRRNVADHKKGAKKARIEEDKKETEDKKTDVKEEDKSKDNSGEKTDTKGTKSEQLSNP
Chain of Histone deacetylase 4 (P56524 whole entry): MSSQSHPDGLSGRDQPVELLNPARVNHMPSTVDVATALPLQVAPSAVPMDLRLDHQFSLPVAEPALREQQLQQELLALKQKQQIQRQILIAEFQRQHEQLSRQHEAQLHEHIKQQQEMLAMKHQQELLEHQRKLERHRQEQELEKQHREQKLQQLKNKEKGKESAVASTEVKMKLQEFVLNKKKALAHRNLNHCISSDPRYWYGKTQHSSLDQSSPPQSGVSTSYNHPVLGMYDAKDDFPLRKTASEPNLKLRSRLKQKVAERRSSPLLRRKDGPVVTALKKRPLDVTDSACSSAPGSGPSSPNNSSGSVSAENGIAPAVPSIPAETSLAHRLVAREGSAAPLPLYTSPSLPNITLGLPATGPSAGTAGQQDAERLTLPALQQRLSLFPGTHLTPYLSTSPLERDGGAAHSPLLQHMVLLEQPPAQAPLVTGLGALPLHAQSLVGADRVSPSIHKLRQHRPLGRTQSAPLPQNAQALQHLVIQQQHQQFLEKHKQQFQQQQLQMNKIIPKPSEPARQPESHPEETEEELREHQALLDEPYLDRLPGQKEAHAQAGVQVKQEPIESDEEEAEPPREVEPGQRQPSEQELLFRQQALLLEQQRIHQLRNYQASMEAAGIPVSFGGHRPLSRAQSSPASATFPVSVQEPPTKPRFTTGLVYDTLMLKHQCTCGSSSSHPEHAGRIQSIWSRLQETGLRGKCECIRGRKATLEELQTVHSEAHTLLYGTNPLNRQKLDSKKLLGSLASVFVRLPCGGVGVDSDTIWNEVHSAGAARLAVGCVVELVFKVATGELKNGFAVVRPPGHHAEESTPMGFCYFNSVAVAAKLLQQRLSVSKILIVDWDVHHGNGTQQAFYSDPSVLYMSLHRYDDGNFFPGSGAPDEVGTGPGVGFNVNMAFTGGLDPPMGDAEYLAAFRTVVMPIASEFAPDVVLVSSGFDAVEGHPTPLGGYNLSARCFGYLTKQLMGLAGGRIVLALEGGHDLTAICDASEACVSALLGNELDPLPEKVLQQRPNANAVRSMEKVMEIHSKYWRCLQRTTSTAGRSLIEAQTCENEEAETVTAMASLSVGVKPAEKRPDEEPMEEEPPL
Chain of Histone deacetylase 3 (O15379 whole entry): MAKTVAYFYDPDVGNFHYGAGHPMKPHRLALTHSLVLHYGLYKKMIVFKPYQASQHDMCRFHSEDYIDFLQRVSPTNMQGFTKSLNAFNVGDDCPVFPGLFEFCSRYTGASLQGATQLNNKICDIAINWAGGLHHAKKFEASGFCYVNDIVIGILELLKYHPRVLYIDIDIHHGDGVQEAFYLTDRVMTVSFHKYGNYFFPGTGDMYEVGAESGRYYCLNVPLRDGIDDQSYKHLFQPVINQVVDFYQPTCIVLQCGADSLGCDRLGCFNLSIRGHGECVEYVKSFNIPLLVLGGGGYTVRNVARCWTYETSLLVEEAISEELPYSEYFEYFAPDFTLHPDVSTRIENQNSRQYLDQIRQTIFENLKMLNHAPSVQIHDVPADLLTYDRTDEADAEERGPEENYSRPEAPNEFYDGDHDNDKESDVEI
Chain of Histone deacetylase 9 (Q9UKV0 whole entry): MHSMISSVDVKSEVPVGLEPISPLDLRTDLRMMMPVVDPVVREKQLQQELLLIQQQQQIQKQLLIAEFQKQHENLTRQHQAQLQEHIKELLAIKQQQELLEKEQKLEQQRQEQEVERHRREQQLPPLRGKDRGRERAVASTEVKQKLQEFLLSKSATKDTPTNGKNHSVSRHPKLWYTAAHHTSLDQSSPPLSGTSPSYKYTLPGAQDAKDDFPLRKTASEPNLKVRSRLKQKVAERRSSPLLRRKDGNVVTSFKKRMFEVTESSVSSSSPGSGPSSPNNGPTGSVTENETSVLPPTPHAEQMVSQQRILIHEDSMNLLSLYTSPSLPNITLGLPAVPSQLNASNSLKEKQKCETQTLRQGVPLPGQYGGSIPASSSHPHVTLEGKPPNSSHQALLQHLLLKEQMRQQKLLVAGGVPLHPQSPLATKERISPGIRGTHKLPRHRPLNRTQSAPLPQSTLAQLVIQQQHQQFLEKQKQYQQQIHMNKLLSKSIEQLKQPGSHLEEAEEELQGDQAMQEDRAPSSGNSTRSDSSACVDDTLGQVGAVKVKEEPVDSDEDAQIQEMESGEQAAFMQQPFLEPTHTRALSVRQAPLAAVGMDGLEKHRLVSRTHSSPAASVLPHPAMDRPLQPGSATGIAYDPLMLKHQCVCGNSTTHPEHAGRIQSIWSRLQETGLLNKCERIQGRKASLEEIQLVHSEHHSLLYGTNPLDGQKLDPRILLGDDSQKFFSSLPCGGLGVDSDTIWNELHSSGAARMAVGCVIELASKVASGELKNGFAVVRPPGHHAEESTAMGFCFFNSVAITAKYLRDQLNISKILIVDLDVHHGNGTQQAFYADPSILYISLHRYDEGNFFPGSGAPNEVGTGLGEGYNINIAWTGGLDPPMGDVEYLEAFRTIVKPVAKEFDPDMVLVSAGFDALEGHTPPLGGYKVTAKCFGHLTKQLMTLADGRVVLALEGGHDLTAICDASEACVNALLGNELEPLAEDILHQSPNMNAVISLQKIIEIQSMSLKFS
Chain of Histone deacetylase 5 (Q9UQL6 whole entry): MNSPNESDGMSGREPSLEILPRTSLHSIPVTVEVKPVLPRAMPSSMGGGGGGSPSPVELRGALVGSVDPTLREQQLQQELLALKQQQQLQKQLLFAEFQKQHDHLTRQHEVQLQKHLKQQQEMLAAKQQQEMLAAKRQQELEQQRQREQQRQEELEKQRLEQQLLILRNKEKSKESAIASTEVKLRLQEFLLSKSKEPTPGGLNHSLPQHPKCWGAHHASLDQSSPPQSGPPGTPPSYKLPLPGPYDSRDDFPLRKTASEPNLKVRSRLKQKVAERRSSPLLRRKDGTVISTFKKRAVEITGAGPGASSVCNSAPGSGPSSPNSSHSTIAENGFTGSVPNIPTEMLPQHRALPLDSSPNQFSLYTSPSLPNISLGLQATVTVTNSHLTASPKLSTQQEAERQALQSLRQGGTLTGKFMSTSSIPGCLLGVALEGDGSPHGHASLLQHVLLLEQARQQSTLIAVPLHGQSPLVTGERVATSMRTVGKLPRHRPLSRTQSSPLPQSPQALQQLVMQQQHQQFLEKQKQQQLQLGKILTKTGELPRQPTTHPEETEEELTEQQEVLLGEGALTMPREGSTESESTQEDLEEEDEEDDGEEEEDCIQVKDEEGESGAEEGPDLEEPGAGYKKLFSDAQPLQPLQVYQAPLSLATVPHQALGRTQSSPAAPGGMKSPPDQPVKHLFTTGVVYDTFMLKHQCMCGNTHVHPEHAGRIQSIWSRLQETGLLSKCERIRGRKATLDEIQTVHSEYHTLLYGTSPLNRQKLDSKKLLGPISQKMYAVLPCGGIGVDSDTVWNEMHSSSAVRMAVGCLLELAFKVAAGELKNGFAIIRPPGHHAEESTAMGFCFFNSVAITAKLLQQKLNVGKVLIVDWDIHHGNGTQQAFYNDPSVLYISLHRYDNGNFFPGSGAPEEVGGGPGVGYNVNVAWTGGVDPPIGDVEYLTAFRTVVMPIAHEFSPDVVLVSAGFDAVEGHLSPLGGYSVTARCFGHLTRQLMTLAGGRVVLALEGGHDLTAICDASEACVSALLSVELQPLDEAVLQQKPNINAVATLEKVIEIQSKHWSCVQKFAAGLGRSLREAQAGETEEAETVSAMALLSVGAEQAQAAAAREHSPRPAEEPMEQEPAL
Chain of Histone deacetylase 1 (Q13547 whole entry): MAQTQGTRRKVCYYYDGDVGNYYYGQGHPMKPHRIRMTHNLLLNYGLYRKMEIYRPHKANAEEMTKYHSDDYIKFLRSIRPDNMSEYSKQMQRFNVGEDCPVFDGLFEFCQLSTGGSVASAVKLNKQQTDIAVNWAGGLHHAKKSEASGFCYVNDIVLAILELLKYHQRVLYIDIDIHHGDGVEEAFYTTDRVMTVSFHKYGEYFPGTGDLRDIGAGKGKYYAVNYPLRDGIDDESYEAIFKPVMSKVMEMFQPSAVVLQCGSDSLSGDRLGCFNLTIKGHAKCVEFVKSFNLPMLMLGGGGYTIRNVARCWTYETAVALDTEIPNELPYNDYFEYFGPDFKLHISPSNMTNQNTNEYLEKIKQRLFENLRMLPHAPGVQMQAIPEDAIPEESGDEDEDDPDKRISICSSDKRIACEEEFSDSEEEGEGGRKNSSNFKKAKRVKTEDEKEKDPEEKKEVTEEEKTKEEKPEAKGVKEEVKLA

SMILES: O=C(CCCCCCc1nc2ccc(-c3ccccc3F)cc2[nH]1)NO
- IC50 (SK-OV-3): 7400 nM

SMILES: O=C(CCCCCCc1nc2ccccc2n1C1CCCC1)NO
- IC50 (SK-OV-3): 4800 nM

SMILES: COc1ccc2nc(CCCCCCC(=O)NO)[nH]c2c1
- IC50 (SK-OV-3): 11000 nM

SMILES: O=C(CCCCCc1nc2ccccc2[nH]1)NO
- IC50 (SK-OV-3): 11000 nM

SMILES: O=C(CCCCCCc1nc2ccc(-c3cccc(F)c3)cc2[nH]1)NO
- IC50 (SK-OV-3): 1500 nM

SMILES: O=C(CCCCCCc1nc2ccccc2n1-c1ccccc1)NO
- IC50 (SK-OV-3): > 20000 nM

SMILES: O=C(CCCCCCc1nc2cccc(Cl)c2[nH]1)NO
- IC50 (SK-OV-3): 10000 nM

SMILES: O=C(CCCCCCc1nc2ccc(-c3cncnc3)cc2[nH]1)NO
- IC50 (SK-OV-3): 2600 nM

- IC50 (Histone deacetylase 2): 34.1 nM
- IC50 (Histone deacetylase 9): 1.1 nM
- IC50 (Histone deacetylase 4): 279 nM
- IC50 [5]: 3 nM
- IC50 (Histone deacetylase 1): 20.2 nM
- IC50 (Histone deacetylase 11): 33.4 nM
- IC50 (Histone deacetylase 8): 282 nM
- IC50 (Histone deacetylase 3): 6.4 nM
- IC50 [12]: 1.9 nM
- IC50 (Histone deacetylase 5): 2.5 nM
SMILES: O=C(CCCCCCc1nc2ccc(Br)cc2[nH]1)NO
- IC50 (SK-OV-3): 260 nM
- IC50 [1]: 560 nM
- IC50 [2]: 2400 nM
- IC50 [3]: 89 nM
- IC50 (NCI-H295R): 180 nM
- IC50 [4]: 980 nM
- IC50 [6]: 610 nM
- IC50 (NCI-H69 [7]): 150 nM
- IC50 (A2780): 1900 nM
- Activity (Mus musculus): Non-toxic
- IC50 [8]: 230 nM
- IC50 (MDA-MB-231): 820 nM
- IC50 (NCI-H69 [9]): 170 nM
- IC50 [10]: 2200 nM
- IC50 [11]: 2000 nM
- inhibition in vivo at 100 mg/kg (MIA PaCa-2 [13]): 74%

SMILES: O=C(CCCCCCC(=O)Nc1ccccc1)NO [VORINOSTAT]
- IC50 (SK-OV-3): 2300 nM
- IC50 [3]: 2300 nM

SMILES: CN(C)c1ccc(-c2ccc3nc(CCCCCCC(=O)NO)[nH]c3c2)cc1
- IC50 (SK-OV-3): 6600 nM

SMILES: O=C(CCCCCCc1nc2ccc(-c3ccccc3)cc2[nH]1)NO
- IC50 (SK-OV-3): 100 nM

SMILES: O=C(CCCCCCc1nc2ccncc2[nH]1)NO
- IC50 (SK-OV-3): > 20000 nM

SMILES: O=C(CCCCCCc1nc2ccccc2n1C1CC1)NO
- IC50 (SK-OV-3): 9500 nM

SMILES: O=C(CCCCCCc1nc2ccc(Cl)cc2[nH]1)NO
- IC50 (SK-OV-3): 320 nM

SMILES: CN(C)c1ccc2nc(CCCCCCC(=O)NO)[nH]c2c1
- IC50 (SK-OV-3): 1200 nM

SMILES: COc1ccc(-c2ccc3nc(CCCCCCC(=O)NO)[nH]c3c2)cc1
- IC50 (SK-OV-3): 3100 nM

SMILES: O=C(CCCCCCc1nc2ccccc2[nH]1)NO
- IC50 (SK-OV-3): 2700 nM

SMILES: Nc1ccn([C@@H]2O[C@H](CO)[C@@H](O)C2(F)F)c(=O)n1
- TGI (MIA PaCa-2 [14]): Active

SMILES: O=C(CCCCCCc1nc2ccc(-c3ccc(F)cc3)cc2[nH]1)NO
- IC50 (SK-OV-3): 1200 nM

SMILES: O=C(CCCCCCc1nc2ccc(F)cc2[nH]1)NO
- IC50 (SK-OV-3): 1900 nM

SMILES: Cn1c(CCCCCCC(=O)NO)nc2ccccc21
- IC50 (SK-OV-3): 3000 nM
